The structures appear in SMILES notation. pIC50: −log10 of the molar value. Read-outs that look alike come from different tables or passages of the source.

Here are results for five compounds from US9732060B2, “Aminotriazine derivative and pharmaceutical composition comprising the same” (Shionogi & Co., Ltd., priority 2013, dated 2017).

For one data set, the target named is CYP1A2 (Homo sapiens (Human), UniProt P05177). Briefly: CYP inhibition test, CYP1A2. The note with it: pooled human hepatic microsome; 7-ethoxyresorufin-O-deethylation. In kind it is in vitro ADME. Here is the method:
(§1) Using commercially available pooled human hepatic microsome, and employing, as markers, 7-ethoxyresorufin-O-deethylation (CYP1A2), tolbutamide methyl-hydroxylation (CYP2C9), mephenytoin 4′-hydroxylation (CYP2C19), dextromethorphan O-demethylation (CYP2D6), and terfenedine hydroxylation as typical substrate metabolism reactions of human main five CYP enzyme forms (CYP1A2, 2C9, 2C19, 2D6, 3A4), an inhibitory degree of each metabolite production amount by a test compound was assessed.
(§2) The reaction conditions were as follows: substrate, 0.5 μmol/L ethoxyresorufin (CYP1A2), 100 μmol/L tolbutamide (CYP2C9), 50 μmol/L S-mephenitoin (CYP2C19), 5 μmol/L dextromethorphan (CYP2D6), 1 μmol/L terfenedine (CYP3A4); reaction time, 15 minutes; reaction temperature, 37° C. enzyme, pooled human hepatic microsome 0.2 mg protein/mL; test, drug concentration, 1.0, 5.0, 10, 20 μmol/L (four points).
(§3) Each five kinds of substrates, human hepatic microsome, or a test drug in 50 mmol/L Hepes buffer as a reaction solution was added to a […] at the composition as described above, NADPH, as a cofactor was added to initiate metabolism reactions as markers and, after the incubation at 37° C. for 15 minutes, a methanol/acetonitrile=1/1 (v/v) solution was added to stop the reaction. After the centrifugation at 3000 rpm for 15 minutes, resorufin (CYP1A2 metabolite) in the supernatant was quantified by a fluorescent multilabel counter and tributamide hydroxide (CYP2CP metabolite), mephenytoin 4′hydroxide (CYP2C19 metabolite), […] (CYP2D6 metabolite), and terfenadine alcohol (CYP3A4 metabolite) were quantified by LC/MS/MS.
(§4) Addition of only DMSO being a solvent dissolving a drug to a reaction system was adopted as a control (100%), remaining activity (%) was calculated at each concentration of a test drug added as the solution and IC50 was calculated by reverse presumption by a logistic model using a concentration and an inhibition rate.

The target in a further data set is CYP2C9 (Homo sapiens (Human), UniProt P11712). Briefly: CYP inhibition test, CYP2C9. Particulars: pooled human hepatic microsome; tolbutamide methyl-hydroxylation. It is filed as in vitro ADME. Here is the method:
as §1, §2, §3, §4

A further data set deals with CYP2C19 (Homo sapiens (Human), UniProt P33261). Briefly: CYP inhibition test, CYP2C19. It is filed as in vitro ADME. Particulars: pooled human hepatic microsome; mephenytoin 4′-hydroxylation. Here is the method: as §1, §2, §3, §4
Chain of CYP2C19 (P33261 whole entry): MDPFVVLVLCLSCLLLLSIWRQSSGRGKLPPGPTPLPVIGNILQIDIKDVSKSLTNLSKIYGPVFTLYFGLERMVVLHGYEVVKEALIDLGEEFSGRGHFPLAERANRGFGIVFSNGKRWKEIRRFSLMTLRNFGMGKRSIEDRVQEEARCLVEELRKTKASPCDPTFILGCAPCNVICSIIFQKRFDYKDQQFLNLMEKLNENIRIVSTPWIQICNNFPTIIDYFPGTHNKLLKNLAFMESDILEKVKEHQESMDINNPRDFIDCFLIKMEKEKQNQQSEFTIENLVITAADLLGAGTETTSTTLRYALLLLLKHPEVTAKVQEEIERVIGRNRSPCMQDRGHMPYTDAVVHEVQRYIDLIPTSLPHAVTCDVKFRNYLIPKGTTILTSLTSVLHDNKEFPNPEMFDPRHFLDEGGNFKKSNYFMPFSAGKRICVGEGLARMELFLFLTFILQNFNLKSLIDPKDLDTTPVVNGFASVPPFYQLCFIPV
The target of the next data set is CYP2D6 (Homo sapiens (Human), UniProt P10635). Briefly: CYP inhibition test, CYP2D6. The note with it: pooled human hepatic microsome; dextromethorphan O-demethylation. In kind it is in vitro ADME. The method, then: as §1, §2, §3, §4
Chain of CYP2D6 (P10635 whole entry): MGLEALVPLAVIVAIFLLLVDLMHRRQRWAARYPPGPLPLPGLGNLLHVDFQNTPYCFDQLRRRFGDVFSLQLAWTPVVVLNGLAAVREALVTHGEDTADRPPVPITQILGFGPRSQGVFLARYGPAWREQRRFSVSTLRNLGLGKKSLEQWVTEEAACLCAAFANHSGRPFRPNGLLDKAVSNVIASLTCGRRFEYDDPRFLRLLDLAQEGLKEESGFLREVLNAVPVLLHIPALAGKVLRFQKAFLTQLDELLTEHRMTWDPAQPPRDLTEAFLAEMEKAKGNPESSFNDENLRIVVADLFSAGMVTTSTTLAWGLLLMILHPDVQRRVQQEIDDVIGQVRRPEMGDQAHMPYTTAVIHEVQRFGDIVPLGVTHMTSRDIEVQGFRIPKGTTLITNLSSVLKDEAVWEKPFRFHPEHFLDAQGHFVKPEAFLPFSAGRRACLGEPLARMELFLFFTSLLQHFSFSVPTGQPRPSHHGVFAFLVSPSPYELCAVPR
The target in another data set is CYP3A4 (Homo sapiens (Human), UniProt P08684). Briefly: CYP inhibition test, CYP3A4. It is filed as in vitro ADME. Particulars: pooled human hepatic microsome; terfenedine hydroxylation. Here is the method: as §1, §2, §3, §4
Chain of CYP3A4 (P08684 whole entry): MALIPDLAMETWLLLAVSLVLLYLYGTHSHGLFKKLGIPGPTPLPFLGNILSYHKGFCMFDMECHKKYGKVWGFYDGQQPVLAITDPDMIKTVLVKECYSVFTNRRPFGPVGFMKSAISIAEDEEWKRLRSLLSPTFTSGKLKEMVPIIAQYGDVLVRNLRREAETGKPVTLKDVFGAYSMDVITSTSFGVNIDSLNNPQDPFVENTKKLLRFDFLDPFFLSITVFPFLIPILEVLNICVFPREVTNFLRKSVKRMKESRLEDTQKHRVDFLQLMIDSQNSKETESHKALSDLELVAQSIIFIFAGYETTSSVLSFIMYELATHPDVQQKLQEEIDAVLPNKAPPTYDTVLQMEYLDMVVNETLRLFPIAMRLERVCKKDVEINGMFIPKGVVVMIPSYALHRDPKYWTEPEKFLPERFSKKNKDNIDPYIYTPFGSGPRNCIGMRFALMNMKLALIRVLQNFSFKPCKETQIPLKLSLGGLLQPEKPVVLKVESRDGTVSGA
Data set [1] is described as follows: Solubility test (1% DMSO, artificial intestinal juice pH 6.8). In kind it is physicochemical. The note with it: artificial intestinal juice pH 6.8 with 1% DMSO, 25 °C, fassgf or other biorelevant, kinetic from dmso stock, artificial intestinal juice pH 6.8, 25 degrees Celsius, read-out: Solubulity. Here is the method:
The solubility of a compound was determined under a condition in which 1% DMSO was added. 10 mmol/L compound solution was prepared using DMSO, and then 2 μL of the compound solution was added to 198 μL of artificial intestinal juice in pH 6.8 (to 250 mL of 0.2 mol/L potassium dihydrogen phosphate reagent solution was added 118 mL of 0.2 mol/L NaOH reagent solution and water to provide a final volume of 1000 mL). After standing at 25 degrees Celsius for 18 hours, the mixed solution was filtrated with suction. The filtrate was diluted twice with methanol/water (1/1), and then a concentration in the filtration was measured with HPLC or LC/MS/MS by the absolute calibration method.

Data set [2] in a line: Metabolism stability test, pooled human hepatic microsomes. The note with it: remaining rate, human liver microsomes, 30 minutes, compound concentration 0.5 μmol/L. In kind it is in vitro ADME. Here is the method: Using commercially available pooled human hepatic microsomes, a test compound is reacted for a constant time, a remaining rate is calculated by comparing a reacted sample and an unreacted sample, thereby, a degree of metabolism in liver is assessed.
A reaction was performed (oxidative reaction) at 37° C. for 0 minute or 30 minutes in the presence of 1 mmol/L NADPH in 0.2 mL of a buffer (50 mmol/L tris-HCl pH 7.4, 150 mmol/L potassium chloride, 10 mmol/L magnesium chloride) containing 0.5 mg protein/mL of human liver microsomes. After the reaction, 50 μL of the reaction solution was added to 100 μL of a methanol/acetonitrile=1/1 (v/v) mixed and centrifuged at 3000 rpm for 15 minutes. The test compound in the supernatant was quantified by LC/MS/MS, and a remaining amount of the test compound after the reaction was calculated, letting a compound amount at 0 minute reaction time to be 100%.
The remaining rate at the compound concentration 0.5 μmol/L are shown below.

Data set [3] is described as follows: Protein binding test (equilibrium dialysis, unbound fraction in serum). In kind it is in vitro ADME. Particulars: 37° C. The method, then:
The unbound fraction of the present compound in serum was measured using serum of various species.
The reactive conditions are as follows: Evaluation method, Equilibrium dialysis; Reaction time, 24 hours; Reaction temperature, 37° C.; Concentration of the present compound, 2 μg/mL
The test solution was added to each serum and the mixture was agitated to prepare the serum samples at the concentration mentioned above. Each serum sample was added into one side of the cell and phosphate buffered saline (PBS) was added into the other side to perform equilibrium dialysis at 37° C. for 24 hours. Then, the concentration of the compounds in the samples that were obtained from both sides was measured by LC/MS/MS.
The ratio of PBS concentration to serum concentration is expressed as unbound fraction (fu),

Data set [4] in a line: Pharmacokinetic test (BA, CLtot). In kind it is in vivo. The note with it: rat, plasma, SD rats. The method, then: • (1) Animals: SD rats were used • (2) Breeding conditions: SD rats were allowed to freely take solid food and sterilized tap water. • (3) Dose and grouping: orally or intravenously administered at a predetermined dose; grouping was as follows (Dose depends on the compound)
Oral administration: 1 mg/kg (n=2)
The total body clearance (CLtot) was calculated by dividing the dose by the AUC of the intravenous administration group.

Another data set concerns the target human P2X3 receptor (Homo sapiens (Human), UniProt P56373). Briefly: Evaluation of human P2X3 receptor inhibitory activity in the presence of human serum albumin (HSA). In kind it is cell-based. Particulars: in the presence of 1% HSA (final concentration). Here is the method:
Stably expressing cell line (C6BU-1 cell transfected with human P2X3 receptor gene (GenBank accession number Y07683; was used. The cells were seeded in a 96-well microtiter plate at a concentration of 8000 cells/well and cultured in the medium (7.0% fetal bovine serum, 7.0% horse serum, 1% antibiotic and antifungal, and 2.0% glutamine in DMEM) for one day at 37° C. under 5% carbon dioxide atmosphere. The medium was replaced with 4 μM Fluo-3-AM solution (20 mM HEPES, 137 mM NaCl, 5.37 mM KCl, 0.9 mM MgCl2, 1.26 mM CaCl2, 5.6 mM D-glucose, 2.5 mM probenecid, 0.5% BSA, and 0.04% Pluronic F-127, pH 7.5) and incubated at 37° C. under 5% dioxide carbon atmosphere for one hour. The plate was washed with washing buffer (20 mM HEPES, 137 mM NaCl, 5.27 mM KCl, 0.9 mM MgCl2, 1.26 mM CaCl2, 5.6 mM D-glucose, 2.5 mM probenecid, pH 7.5), and each well was added with 40 μL of this buffer. The plate was placed in High-Throughput Screening System FDSS 3000 (Hamamatsu Photonics K.K.). Measurement of fluorescence intensity by FDSS 3000 was started, and 40 μL of DMSO solutions containing 1% HSA (final concentrations) different concentrations of the test compound as prepared by dilution with dilution buffer (20 mM HEPES, 137 mM NaCl, 5.27 mM KCl, 0.9 mM MgCl2, 1.26 mM CaCl2, 5.6 mM D-glucose, 2.5 mM probenecid, 0.1% Pluronic F-127, pH 7.5) were dispensed to each well through the built-in automatic dispenser. Five minutes after, 50 nM ATP solution (50 μL) prepared by dilution with the dilution buffer was dispensed through the built-in automatic dispenser, and the measurement of fluorescence intensity was continued for 4 min. For each well, the specific maximum fluorescence intensity was calculated as the ratio of the maximum fluorescence intensity after addition of the ATP solution to the fluorescence intensity at the starting of the measurement. […] FDSS software (Hamamatsu Photonics K.K.) was used for calculation of the specific maximum fluorescence intensity. IC50 was calculated using Microsoft Excel (Microsoft Corporation) and XLfit (idbs Ltd.)

The next data set has as its target Rat P2X3 receptor (Rattus norvegicus (Rat), UniProt P49654). Briefly: Evaluation of rat P2X3 receptor inhibitory activity in the presence of rat serum albumin (RSA). In kind it is cell-based. Particulars: read-out: ratP2X3 + RSA IC50. Here is the method: Rat P2X3 receptor gene (GenBank accession number NM_031075) was expressed in C6BU-1 cell. The C6BU-1 cells were seeded in a 96-well micro titer plate at a concentration of 2500 cells/well and cultured in the medium (7.0% fetal bovine serum, 7.0% horse serum, and 1% antibiotic and antifungal in DMEM) for one day at 37° C. under 5% carbon dioxide atmosphere. The plasmid was transfected into the cells using transfection reagent FuGENE6 (Promega). The transfected cells were cultured in the medium for one day at 37° C. under 5% carbon dioxide atmosphere. The medium was replaced with 4 μM Fluo-4-AM solution (pH 7.5) containing 20 mM HEPES, 137 mM NaCl, 5.27 mM KCl, 0.9 mM MgCl2, 1.26 mM CaCl2, 5.6 mM D-glucose, 2.5 mM probenecid, 10% RSA, and 0.08% Pluronic F-127, and incubated at 37° C. under 5% dioxide carbon atmosphere for one hour. The plate was washed with washing buffer (20 mM HEPES, 137 mM NaCl, 5.27 mM KCl, 0.9 mM MgCl2, 1.26 mM CaCl2, 5.6 mM D-glucose, 2.5 mM probenecid, pH 7.5), and each well was added with 40 μL of this buffer. The plate was placed in High-Throughput Screening System FDSS 3000 (Hamamatsu Photonics K.K.). Measurement of fluorescence intensity by FDSS 3000 was started, and 40 μL of DMSO solutions containing 1% RSA (final concentrations) and different concentrations of the test compound as prepared by dilution with dilution buffer (20 mM HEPES, 137 mM NaCl, 5.27 mM KCl, 0.9 mM MgCl2, 1.26 mM CaCl2, 5.6 mM D-glucose, 2.5 mM probenecid, 0.1% Pluronic F-127, pH 7.5) were dispensed to each well through the built-in automatic dispenser. Five minutes after, 50 nM ATP solution (50 μL) prepared by dilution with the dilution buffer was dispensed through the built-in automatic dispenser, and the measurement of fluorescence intensity was continued for 4 min. For each well, the specific maximum fluorescence intensity was calculated as the ratio of the maximum fluorescence intensity after addition of the ATP solution to the fluorescence intensity at the starting of the measurement. […] FDSS software (Hamamatsu Photonics K.K.) was used for calculation of the specific maximum fluorescence intensity. IC50 was calculated using Microsoft Excel (Microsoft Corporation) and XLfit (idbs Ltd.).

Chain of human P2X3 receptor (P56373 whole entry): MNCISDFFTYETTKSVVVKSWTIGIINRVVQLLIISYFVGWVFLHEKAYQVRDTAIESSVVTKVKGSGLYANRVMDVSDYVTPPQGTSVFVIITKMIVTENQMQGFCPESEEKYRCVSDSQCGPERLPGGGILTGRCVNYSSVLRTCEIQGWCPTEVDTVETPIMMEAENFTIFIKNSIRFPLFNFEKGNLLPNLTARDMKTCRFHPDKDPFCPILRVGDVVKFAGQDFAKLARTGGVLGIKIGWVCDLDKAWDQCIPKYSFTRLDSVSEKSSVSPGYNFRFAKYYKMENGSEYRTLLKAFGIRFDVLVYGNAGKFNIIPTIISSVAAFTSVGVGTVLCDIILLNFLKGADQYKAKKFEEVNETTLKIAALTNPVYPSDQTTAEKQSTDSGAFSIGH
Chain of Rat P2X3 receptor (P49654 whole entry): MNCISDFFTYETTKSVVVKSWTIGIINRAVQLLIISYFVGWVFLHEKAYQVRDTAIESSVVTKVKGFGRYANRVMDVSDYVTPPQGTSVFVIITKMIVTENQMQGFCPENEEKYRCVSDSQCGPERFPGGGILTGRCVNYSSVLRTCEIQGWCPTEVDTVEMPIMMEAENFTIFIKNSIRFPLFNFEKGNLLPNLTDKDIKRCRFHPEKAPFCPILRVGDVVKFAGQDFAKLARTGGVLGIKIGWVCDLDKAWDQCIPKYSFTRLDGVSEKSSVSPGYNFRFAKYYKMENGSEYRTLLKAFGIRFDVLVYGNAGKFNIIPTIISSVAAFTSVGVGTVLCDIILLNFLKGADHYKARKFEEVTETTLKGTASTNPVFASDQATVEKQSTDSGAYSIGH
Chain of CYP2C9 (P11712 whole entry): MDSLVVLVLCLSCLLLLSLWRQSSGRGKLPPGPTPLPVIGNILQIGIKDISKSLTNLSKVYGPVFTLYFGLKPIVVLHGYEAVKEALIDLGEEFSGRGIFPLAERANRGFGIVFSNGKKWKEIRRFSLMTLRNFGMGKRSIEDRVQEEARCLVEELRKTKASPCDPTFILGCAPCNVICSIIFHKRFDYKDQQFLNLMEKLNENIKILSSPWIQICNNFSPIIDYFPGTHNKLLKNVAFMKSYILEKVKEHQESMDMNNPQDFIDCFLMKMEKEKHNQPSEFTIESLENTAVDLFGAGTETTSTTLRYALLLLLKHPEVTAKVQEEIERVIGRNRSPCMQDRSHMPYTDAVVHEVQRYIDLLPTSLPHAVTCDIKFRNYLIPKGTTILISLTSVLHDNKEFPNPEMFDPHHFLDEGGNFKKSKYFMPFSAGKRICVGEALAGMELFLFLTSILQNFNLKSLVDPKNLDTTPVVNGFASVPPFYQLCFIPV
Chain of CYP1A2 (P05177 whole entry): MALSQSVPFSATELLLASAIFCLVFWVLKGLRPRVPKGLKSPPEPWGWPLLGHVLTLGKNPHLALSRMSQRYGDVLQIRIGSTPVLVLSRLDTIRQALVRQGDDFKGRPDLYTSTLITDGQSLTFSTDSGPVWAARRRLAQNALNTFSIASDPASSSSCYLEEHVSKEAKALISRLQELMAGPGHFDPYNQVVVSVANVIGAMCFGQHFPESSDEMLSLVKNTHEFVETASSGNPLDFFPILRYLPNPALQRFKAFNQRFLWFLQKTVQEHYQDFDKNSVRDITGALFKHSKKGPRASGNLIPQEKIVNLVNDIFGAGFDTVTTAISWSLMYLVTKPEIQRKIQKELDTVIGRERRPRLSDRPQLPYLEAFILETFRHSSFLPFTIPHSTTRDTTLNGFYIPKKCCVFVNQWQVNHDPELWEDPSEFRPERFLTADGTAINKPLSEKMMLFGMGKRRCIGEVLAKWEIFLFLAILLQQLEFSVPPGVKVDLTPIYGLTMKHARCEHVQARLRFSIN

What is called pIC50 is the IC50 on a negative log10 scale, so that one unit is a factor of ten. For orientation: fraction unbound means free concentration divided by total concentration. A high value points to weak binding. For orientation: clearance means a measure of how efficiently the substance is removed, as volume per time. A low value points to inefficient removal. By AUC is commonly meant the area under the concentration-time curve, a measure of exposure. `Cc1ccc(Cn2c(=O)n(C[C@H](C)C(=O)O)c(=O)[nH]/c2=N\c2ccc(Oc3cccc(F)n3)cc2)cc1` [Compound I-057]: the pIC50 against CYP1A2, against CYP2C9, on CYP2C19, against CYP2D6 and against CYP3A4 was < 4.70 each time. Further, the solubility at 18 h in data set [1] is > 50 µM. Besides, the “Metabolism Stability” value in data set [2] came to 91%. Further, the unbound share (fraction unbound) at 24 h, 2 μg/mL in [3] amounted to 0.017. In [4] (intravenous administration 0.5 mg/kg), this compound showed a clearance of 22.9 mL/min/kg. Also, the AUC came to 367 ng·h/mL in data set [4] (intravenous administration 0.5 mg/kg, read-out: AUC (iv)) and 487 ng·h/mL in [4] (oral administration 1 mg/kg, read-out: AUC (po)).

With `O=c1[nH]/c(=N\c2ccc(Oc3ccc(F)cn3)cc2)n(Cc2ccc(Cl)cc2)c(=O)n1[C@H]1C[C@H](C(=O)O)C1` [Compound I-019], the negative-log IC50 (pIC50) at human P2X3 receptor was 7.17; at Rat P2X3 receptor it was 7.96. In addition, the solubility at 18 h in data set [1] is > 50 µM. The “Metabolism Stability” value in [2] is reported as 96%. The compound further came in with a fraction unbound at 24 h, 2 μg/mL in data set [3] of 0.01.

Regarding `Cc1ccc(Cn2c(=O)n(C[C@H](C)C(=O)O)c(=O)[nH]/c2=N\c2ccc(Oc3ncccc3F)cc2)cc1` [Compound I-056], the negative logarithm of the IC50 (pIC50) at human P2X3 receptor is 7.64. This compound registered a fraction unbound at 24 h, 2 μg/mL in [3] of 0.018.

On to `C[C@@H](Cn1c(=O)[nH]/c(=N\c2ccc(Oc3cnccn3)cc2)n(Cc2ccc(Cl)cc2)c1=O)C(=O)O` [Compound R-019], for which, at Rat P2X3 receptor, the pIC50 was 8.10. The same compound showed a fraction unbound at 24 h, 2 μg/mL in data set [3] of 0.018.

In the case of `C[C@@H](Cn1c(=O)[nH]/c(=N\c2ccc(Oc3cccc(F)n3)cc2)n(Cc2ccc(F)cc2F)c1=O)C(=O)O` [Compound I-029], the “Metabolism Stability” value in data set [2] is recorded as 100%. The unbound share (fraction unbound) at 24 h, 2 μg/mL in [3] is 0.017.
